Results reported in US20040038855A1 (priority 1999, published 2004).
pKi: −log10 of the molar value. Counter-ions that a name gives are not always drawn. Like-named read-outs stand apart in the source and are kept apart here. One block for each compound: values may come before it.

Columns and labels:
human MCH1 receptor [1] = target: T1, human MCH1 receptor (Homo sapiens, UniProt Q99705); experiment: Intracellular calcium response to MCH in COS-7 cells transfected with MCH1 (fluo-3, FLIPR): antagonist potency; assay type: cell-based; design: expressed in transfected cells; host or cells: COS-7; settings: read-out: Kb (nM) hMCH1
Excerpt: MCH1 antagonist compounds were identified by their ability to inhibit the MCH-elicited response. […]. From the IC50 values, the antagonist potency (Kb)was derived using the Cheng-Prussof correction (Lazareno and Birdsall, 1993). […]

human GALR2 receptor = target: T2, human GALR2 receptor (Homo sapiens, UniProt O43603); experiment: Binding affinity at the human GALR2 receptor; settings: read-out: hGALR2 Ki
T2 construct: expressed in transfected cells
T2 sequence (O43603 1-387): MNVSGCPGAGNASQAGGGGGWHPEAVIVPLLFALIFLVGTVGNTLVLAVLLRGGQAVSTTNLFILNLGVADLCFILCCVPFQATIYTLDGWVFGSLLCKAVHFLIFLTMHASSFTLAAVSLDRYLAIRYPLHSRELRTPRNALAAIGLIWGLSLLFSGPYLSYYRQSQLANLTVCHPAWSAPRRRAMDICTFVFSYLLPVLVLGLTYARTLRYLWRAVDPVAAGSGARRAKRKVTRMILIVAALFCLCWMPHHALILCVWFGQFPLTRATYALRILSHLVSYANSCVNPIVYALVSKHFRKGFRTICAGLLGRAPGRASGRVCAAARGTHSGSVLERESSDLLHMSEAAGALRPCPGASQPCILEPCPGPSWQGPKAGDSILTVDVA
Excerpt: (§1) The design of such compounds can be optimized by determining their binding affinity at the recombinant MCH1, NPY1, NPY2, Gal1, Gal2, Gal3, and 5HT2C receptors. The methods to obtain the cDNA of the receptor, express said receptors in heterologous systems, and carry out assays to determine binding affinity are described in the following publications: human NPY1 (Larhammar et al., 1992), human NPY5 (U.S. Pat. No. 5,602,024, the disclosure of which is hereby incorporated by reference in its entirety into this application), human Gall (Habert-Ortoli et al., 1994), human Gal2 (Smith et al., 1997), human Gal3 (Smith et al., 1998), and rat 5HT2C (Julius et al., 1988). Additionally, the compounds would optimally not bind at the following receptors due to possible side effects: human H1 histamine and human H2 histamine receptors; human alpha-1A adrenergic, human alpha-1D adrenergic, human alpha-2A adrenergic, human alpha-2B adrenergic, and human alpha-2C adrenergic receptors; human dopamine D1, D2, D3, D4, and D5 receptors; the β-adrenoceptor; and the human 5HT1A, human 5HT1B, human 5HT1D, human 5HT1E, human 5HT1F, human 5HT2A, rat 5HT2C, human 5HT4, human 5HT6, and human 5HT7 receptors.

rat 5HT2C receptor = target: T3, rat 5HT2C receptor (Rattus norvegicus, UniProt P08909); experiment: Binding affinity at the rat 5HT2C receptor; settings: read-out: r5HT2C Ki
T3 construct: expressed in transfected cells
T3 sequence (P08909 33-460): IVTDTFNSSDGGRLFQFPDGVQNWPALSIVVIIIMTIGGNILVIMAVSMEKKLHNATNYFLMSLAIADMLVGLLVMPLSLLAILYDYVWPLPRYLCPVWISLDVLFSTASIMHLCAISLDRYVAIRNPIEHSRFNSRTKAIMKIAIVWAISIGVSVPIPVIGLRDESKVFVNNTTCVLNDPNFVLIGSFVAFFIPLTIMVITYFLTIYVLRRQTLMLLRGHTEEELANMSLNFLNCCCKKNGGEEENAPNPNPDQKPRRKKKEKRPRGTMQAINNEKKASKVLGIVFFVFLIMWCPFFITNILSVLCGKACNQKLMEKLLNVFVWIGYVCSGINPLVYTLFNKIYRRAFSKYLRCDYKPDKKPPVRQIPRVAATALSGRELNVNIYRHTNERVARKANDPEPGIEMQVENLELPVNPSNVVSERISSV
Excerpt: as §1
Other 5HT Receptors: Other serotonin receptor binding assays were performed according to published methods: rat 5HT2C receptor (Julius et al., 1988); and 5HT6 (Monsma, et al., 1993). The binding assays using the 5HT4 receptor were performed according to the procedures described in U.S. Pat. No. 5,766,879, the disclosure of which is hereby incorporated by reference in its entirety into this application.

human GALR1 receptor = target: T4, human GALR1 receptor (Homo sapiens, UniProt P47211); experiment: Binding affinity at the human GALR1 receptor; settings: read-out: hGALR1 Ki
T4 construct: expressed in transfected cells
T4 sequence (P47211 1-349): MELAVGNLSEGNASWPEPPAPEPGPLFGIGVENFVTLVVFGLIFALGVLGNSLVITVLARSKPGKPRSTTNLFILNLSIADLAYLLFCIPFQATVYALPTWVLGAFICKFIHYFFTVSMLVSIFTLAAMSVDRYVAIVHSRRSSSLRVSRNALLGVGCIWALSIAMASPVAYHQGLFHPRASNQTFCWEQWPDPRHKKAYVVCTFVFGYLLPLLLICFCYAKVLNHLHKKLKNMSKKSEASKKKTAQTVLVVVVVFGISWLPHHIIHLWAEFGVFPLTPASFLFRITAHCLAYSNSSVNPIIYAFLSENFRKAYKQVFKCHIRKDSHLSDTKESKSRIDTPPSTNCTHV
Excerpt: as §1

human GALR3 receptor = target: T5, human GALR3 receptor (Homo sapiens, UniProt O60755); experiment: Binding affinity at the human GALR3 receptor; settings: read-out: hGALR3 Ki
T5 construct: expressed in transfected cells
T5 sequence (O60755 1-368): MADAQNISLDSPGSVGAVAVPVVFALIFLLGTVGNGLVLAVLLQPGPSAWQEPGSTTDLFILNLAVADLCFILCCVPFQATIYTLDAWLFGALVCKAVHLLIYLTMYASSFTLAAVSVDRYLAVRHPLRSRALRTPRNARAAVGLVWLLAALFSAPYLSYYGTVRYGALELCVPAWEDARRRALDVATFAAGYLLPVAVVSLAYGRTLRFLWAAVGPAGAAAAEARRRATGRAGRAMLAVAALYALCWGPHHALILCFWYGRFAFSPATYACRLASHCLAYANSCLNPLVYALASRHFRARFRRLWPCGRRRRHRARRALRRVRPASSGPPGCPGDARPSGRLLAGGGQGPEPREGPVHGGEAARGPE
Excerpt: as §1

human MCH1 receptor [2] = target: T1, human MCH1 receptor; experiment: Competition binding, membrane preparations of A293 cells expressing the human MCH1 receptor, [3H] Compound 10 as radioligand; design: expressed in transfected cells; settings: Table 3b; A293 cell membranes, [3H] Compound 10; read-out: hMCH1* Ki
Description: TRITIATED METHYL (4S)-3-{[(3-{4-[3-(ACETYLAMINO)PHENYL]-1-[…]}PROPYL)AMINO]CARBONYL}-4-(3,4-DIFLUOROPHENYL)-6-(METHOXYMETHYL)-2-OXO-1,2,3,4-TETRAHYDRO-5-PYRIMIDINECARBOXYLATE ([^3H] COMPOUND 10): This radiochemical synthesis was carried out by Amersham Pharmacia Biotech, Cardiff, Wales. A methanolic solution of methyl (4S)-3-({[3-(4-[3-(acetylamino)phenyl]-3,6-dihydro-1(2H)pyridinyl)propyl]amino}carbonyl)-4-(3,4-difluorophenyl)-6-(methoxymethyl)-2-oxo-1,2,3,4-tetrahydro-5-pyrimidinecarboxylate was exposed to tritium gas at 1 atmosphere pressure in the presence of 5% palladium on carbon with stirring overnight to give the tritiated methyl (4S)-3-{[(3-{4-[3-(acetylamino)phenyl]-1-piperidinyl}propyl)amino]carbonyl}-4-(3,4-difluorophenyl)-6-(methoxymethyl)-2-oxo-1,2,3,4-tetrahydro-5-pyrimidinecarboxylate ((+)-isomer) After purification by reverse phase HPLC (Hypersil ODS, 4.6×100 mm, methanol:H2O:Et3N 10:90:1 to 100:0:1 in 15 min at 1.0 mL/min, with radiochemical and UV detection), this product was used as a radioligand in the MCH1 binding assays. The same procedure was carried out with H2 gas in place of ^3H2 to afford the non-radioactive version of Compound 10.

T1 sequence (Q99705 whole entry): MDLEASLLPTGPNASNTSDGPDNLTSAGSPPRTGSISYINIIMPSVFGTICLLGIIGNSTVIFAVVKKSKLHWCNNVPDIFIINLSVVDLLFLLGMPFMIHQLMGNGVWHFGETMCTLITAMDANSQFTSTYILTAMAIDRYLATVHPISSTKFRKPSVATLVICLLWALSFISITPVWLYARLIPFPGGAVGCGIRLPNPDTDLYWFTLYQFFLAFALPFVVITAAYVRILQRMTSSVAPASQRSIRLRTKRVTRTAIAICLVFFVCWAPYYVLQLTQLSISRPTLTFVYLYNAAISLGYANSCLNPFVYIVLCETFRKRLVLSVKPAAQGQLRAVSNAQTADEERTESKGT

melting point: 82 to 84 °C
SMILES: COCC1=C(C(=O)OC)C(c2ccc(F)c(F)c2)N(C(=O)NCCCN2CCC(OC(C)=O)(c3ccccc3)CC2)C(=O)N1 (centres unmarked) (as salt: hydrochloride) [Example 3, (1)-1,2,3,6-TETRAHYDRO-1-{N-[3-(4-O-ACETYL)-4-PHENYLPIPERIDIN-1-YL]PROPYL}CARBOXAMIDO-5-METHOXYCARBONYL-4-METHOXYMETHYL-6-(3,4-DIFLUOROPHENYL)-2-OXOPYRIMIDINE]

melting point: 155 to 157 °C
SMILES: COC(=O)C1=C(C)NC(=O)N(C(=O)NCCCN2CCC3(CCc4ccccc43)CC2)C1c1ccc2nonc2c1 (racemic) (as salt: hydrochloride) [Example 21]

melting point: 150 to 153 °C
SMILES: COC(=O)C1=C(C)NC(=O)N(C(=O)NCCCN2CCN(c3ccccc3[N+](=O)[O-])C[C@@H]2C)C1c1ccc(F)c(F)c1 (single isomer, unassigned; (+)) (as salt: HCl) [Example 34]

melting point: 80 to 84 °C
Kb (human MCH1 receptor [1]): 35 nM
SMILES: COCC1=C(C(=O)OC)C(c2ccc(F)c(F)c2)N(C(=O)NCCCN2CCC(c3cccc(OC)c3)CC2)C(=O)N1 (single isomer, unassigned; (+)) [Example 9, (+)-1,2,3,6-TETRAHYDRO-1-N-[4-(3-METHOXY)-PHENYL}-PIPERIDIN-1-YL]-PROPYL-CARBOXAMIDO-4-METHOXYMETHYL-6-(3,4-DIFLUOROPHENYL)-2-OXOPYRIMIDINE-5-CARBOXYLIC ACID METHYL ESTER]

pKi (human GALR2 receptor; Table 3a): < 4.30
pKi (human GALR2 receptor; Table 3b): < 4.30
pKi (rat 5HT2C receptor; Table 3a): 4.40
pKi (rat 5HT2C receptor; Table 3b): 4.40
pKi (human GALR1 receptor; Table 3a): < 4.30
pKi (human GALR1 receptor; Table 3b): < 4.30
pKi (human GALR3 receptor; Table 3a): < 4.30
pKi (human GALR3 receptor; Table 3b): < 4.30
pKi (human MCH1 receptor [2]): 7.31
SMILES: COCC1=C(C(=O)OC)C(c2ccc(F)c(F)c2)N(C(=O)NCCCN2CC=C(c3cccc(NC(C)=O)c3)CC2)C(=O)N1 (centres unmarked) [Example 2, METHYL 3-[(3-4-[3-(ACETYLAMINO)PHENYL]-1,2,3,6-TETRAHYDRO-1-PYR-IDINYLPROPYL)AMINO]CARBONYL-4-(3,4-DIFLUOROPHENYL)-6-(METHOXY-METHYL)-2-OXO-1,2,3,4-TETRAHYDRO-5-PYRIMIDINECARBOXYLATE]

melting point: 158 to 159 °C
SMILES: O=C(NC1CCN(CCC2CCc3ccccc3C2=O)CC1)c1ccccc1 (centres unmarked) [Example 5]

Kb (human MCH1 receptor [1]): 102 nM
SMILES: COC(=O)C1=C(C)NC(=O)N(C(=O)NCCCN2CCC3(CC2)C(=O)CCc2ccccc23)C1c1ccc(F)c(F)c1 (centres unmarked) [Example 24]

melting point: 150 to 153 °C
SMILES: COC(=O)C1=C(C)NC(=O)N(C(=O)NCCCN2CCC3(CCc4ccccc43)CC2)C1c1ccc(F)c(F)c1 (centres unmarked) [Example 32]

The next lines start with the compound.

SMILES: O=C(CCCN1CCC(NC(=O)c2ccccc2)CC1)c1ccc(Cl)cc1 (as salt: HCl) [Example 28, [3-(4-CHLOROBENZOYL)]PROPYL-4-BENZAMIDOPIPERIDINE]
melting point: 243 to 244 °C

SMILES: COC(=O)C1=C(C)NC(=O)N(C(=O)NCCCN2CCC3(CC2)OCc2ccccc23)C1c1ccc(F)c(F)c1 (centres unmarked) (as salt: hydrochloride) [Example 20, 4-(3,4-DIFLUORPHENYL)-6-METHYL-2-OXO-3-{[3-(4-SPIRO[ISOBENZOFURAN-1(3H),4′-PIPERIDINE]PROPYL}-1,2,3,4-TETRAHYDROPYRIMIDINE-5-CARBOXYLIC ACID METHYL ESTER]
melting point: 178 to 182 °C

SMILES: COC(=O)C1=C(C)NC(=O)N(C(=O)NCCCN2CCN(c3ccccc3C)CC2)C1c1ccc(F)c(F)c1 (centres unmarked) (as salt: hydrochloride) [Example 35, 1,2,3,6-TETRAHYDRO-1{N-[4-(2′-METHYL-PHENYL)PIPERAZIN-1-YL]-PROPYL}-CARBOXAMIDO-4-METHYL-6-(3,4-DIFLUOROPHENYL)-2-OXO-PYRIMIDINE]
melting point: 66 to 71 °C

SMILES: COC(=O)C1=C(C)NC(=O)N(C(=O)NCCCN2CCC3(CC2)OCc2ccccc23)C1c1ccc2nonc2c1 (single isomer, unassigned) (as salt: hydrochloride) [Example 18]
melting point: 180 to 182 °C

SMILES: COCC1=C(C(=O)OC)C(c2ccc(F)c(F)c2)N(C(=O)NCCCN2CCC(C)(c3ccccc3)CC2)C(=O)N1 (single isomer, unassigned; (+)) [Example 36, (+)-1,2,3,6-TETRAHYDRO-5-METHOXYCARBONYL-4-METHOXYMETHYL-2-OXO-1-{N-[3-(4-METHYL-4-PHENYL PIPERIDINE-1-YL]PROPYL}-6-(3,4-DIFLUOROPHENYL) PYRIMIDINE]
Kb (human MCH1 receptor [1]): 406 nM

SMILES: COC(=O)C1=C(C)NC(=O)N(C(=O)NCCCN2CCC3(CC2)C(=O)CCc2ccccc23)C1c1ccc2nonc2c1 (centres unmarked) [Example 23, HYDROCHLORIDE]
Kb (human MCH1 receptor [1]): 68 nM
